Data on 89 compounds can be found in a melting point compilation (Tetko et al.; mined from patent text by program, amines drawn as free bases though some values may be those of a salt).

For `C[C@H](NC(=O)c1c[nH]c2ncc(-c3ccc(C(=O)NC4CCOCC4)s3)nc12)C(C)(C)C`, the melting point was in the range of 333 to 334 °C.

Consider `FC(F)(F)c1ccc2c(c1)N(CC1CN3CCC1CC3)c1ccccc1S2` (centres undefined), for which the melting point worked out at 150 °C.

`Nc1ncc(-c2ccccc2)nc1-c1ccc(O)cc1` gave a melting point of 181 to 183 °C.

For the compound `CS(=O)(=O)NCCCOS(C)(=O)=O`, the melting point was 53.5 to 55.5 °C.

In turn, `CCOC(=O)N1CCN(c2nc(C)nc3c2OCC(=O)N3CC(O)CO)CC1` (centres undefined) showed a melting point of 146 to 148 °C.

With `Oc1ccc2c(ccc3ccccc32)c1-c1c(O)ccc2c1ccc1ccccc12`, the melting point lay within 244 to 245 °C.

`O=C(O)CCc1cc2cc(Cl)ccc2n1S(=O)(=O)c1ccc2c(c1)OCO2` showed a melting point of 207 °C.

With `COc1cc(Nc2c(C#N)cnc3cc(C#CCN4CCN(C)CC4)sc23)cc(OC)c1OC`, the melting point was in the range of 180 to 182 °C.

Regarding `CCCCCS(=O)(=O)NC(=O)OCc1cc(OC(C)C)nn1Cc1ccc(Cl)cc1Cl`, the melting point was in the range of 126 to 128 °C.

`Cc1cc(-c2nnc3c4ccccc4c(OCc4cnn(C)c4)nn23)no1` registered a melting point of 212 to 213 °C.

For the compound `COc1cccc(-c2cn(C)cc(-c3cccc(C(F)(F)F)c3)c2=O)c1`, the melting point fell in the range of 113 to 115 °C.

`O=C(C1CC1)N1CCC2(CC1)OC(c1ccccc1)C1CCCCN12` (centres undefined) had a melting point of 110 to 114 °C.

Compound `O=[N+]([O-])c1cc(C(F)(F)F)ccc1S(=O)(=O)NCC(O)(Cn1cncn1)c1ccc(Cl)cc1Cl` (centres undefined) yielded a melting point of 97 to 105 °C.

Take `CCN1CN(C2CC(O)C(CO)O2)C(=O)NC1=O` (centres undefined): the melting point stood at 162 °C.

`COc1c(Cl)cc(F)c(-n2ncc(C(F)(F)F)cc2=O)c1N` displayed a melting point of 156 to 157 °C.

With `CN(C)CCCOc1ccc(Nc2nccc(-c3ccncc3)n2)cc1`, the melting point was 123 to 124 °C.

For the compound `O=[N+]([O-])c1ccc(NCCc2ccccc2)cc1`, the melting point was in the range of 57 to 59 °C.

The compound `Cc1ccc(N2C=NC(=O)C23CCN(Cc2ccccc2)CC3)cc1` returned a melting point of 208 to 213 °C.

Regarding `COc1ccc(-c2nc(N(C)C)c3c(C)c(C#N)sc3n2)cc1`, the melting point is 123 to 125 °C.

For the compound `CCOC(=O)c1c(Cl)nc2ccc(Br)cc2c1Cl`, the melting point lay within 120 to 121 °C.

`Clc1cc(Cl)nc(-c2ccc(Sc3ccccc3)cc2)n1` showed a melting point of 94 to 97 °C.

`C=CCOc1ccccc1C(=O)Nc1c(CCC)nn(C)c1C(N)=O` yielded a melting point of 132 to 134 °C.

Compound `COc1ccc(-c2ncnc(-c3ccc(C(F)(F)F)cc3F)c2N)c(O)c1` returned a melting point of 100 to 103 °C.

`COC(=O)CCCc1cc2cc(Cl)ccc2n1S(=O)(=O)c1c(C)noc1C` came in with a melting point of 96 to 98 °C.

Take `NC(=O)CC(=S)N1CCCC1`: the melting point is 110 to 120 °C.

On to `CC(C)N1CCN(S(=O)(=O)c2cccc(NC(=O)Nc3ccc(C(F)(F)F)cc3)c2)CC1`, for which the melting point fell in the range of 117 to 122 °C.

For `CC(C)c1cc(C(C)C)c(CC(=O)NS(=O)(=O)Oc2c(C(C)C)cc(NS(=O)(=O)c3cccc4c(N(C)C)cccc34)cc2C(C)C)c(C(C)C)c1`, the melting point fell in the range of 103 to 105 °C.

For `CCCn1nc(-c2ccc(O)cc2)c2cccc(-c3ccc(F)cc3)c21`, the melting point fell in the range of 110 to 111 °C.

Consider `CN(C)CCC(Oc1ccc(N)cc1)c1ccccc1` (centres undefined), for which the melting point fell in the range of 82 to 84 °C.

`CCSC(c1ccc(Cl)cc1)C(C(=O)C(C)(C)C)n1cncn1` (centres undefined) displayed a melting point of 154 °C.

`CCOC(=O)Nc1nc(C)c(-c2nc3ccccc3c(=O)n2-c2ccc(Cl)cc2)s1` gave a melting point greater than 275 °C.

Consider `CCCOc1ccccc1-c1cc(C)c(C(N)=O)c(=O)[nH]1`, for which the melting point is 239 to 242 °C.

In turn, `CC1(C)Nc2ccc3c(c2N1)C(=O)c1ccccc1C3=O` gave a melting point of 235 to 237 °C.

The compound `Cc1cc(C)n2nc(NS(=O)(=O)c3ccccc3[N+](=O)[O-])nc2n1` yielded a melting point of 255 to 256 °C.

As for `O=[N+]([O-])c1ccccc1NCCCCCCCCCCCCNc1ccccc1[N+](=O)[O-]`, the melting point was in the range of 79 to 80 °C.

Turning to `FC(F)(F)c1ccc(Oc2ccc(CCNc3ncnc4nccnc34)cc2)nc1`, the melting point was 147 to 150 °C.

`COc1ccc(CCNc2cc(-n3cccn3)nc(-c3cccs3)n2)cc1` yielded a melting point of 99.6 to 100 °C.

`Nc1nc2c(c(N3CCN(Cc4ccccc4)CC3)n1)SCCC2` gave a melting point of 124 to 127 °C.

`Cc1cc(C(=O)CCc2cc(-c3ccc(C(F)(F)F)cc3)nn2CC2CC2)ccc1OCC(=O)O` had a melting point of 168 to 175 °C.

Compound `COc1ccc(-c2ccc(C(=O)Nc3ccc4cc(CN5C(C)(C)CCCC5(C)C)ccc4c3)cc2)cc1` registered a melting point of 212 to 214 °C.

For the compound `NNc1nc(Cl)nc2ccc(Cl)cc12`, the melting point was greater than 280 °C.

With `O=C1NC(=O)C(Cc2ccc3cc(OCc4ccccc4)ccc3n2)S1` (centres undefined), the melting point is 144 to 146 °C.

Turning to `CCCNC(=C1Sc2ccccc2C1=O)c1ccccc1`, the melting point was in the range of 124 to 125 °C.

`COC(=O)c1cc2c(nc1C)C(CO)CCCC2` (centres undefined) showed a melting point of 55 to 56 °C.

On to `CCOC(=O)C=C1CSC(=N)N1N`, for which the melting point fell in the range of 135 to 137 °C.

`COc1ccc2c(C(=O)c3cc(OC)c(OC)c(OC)c3)c(-c3ccc(OC)c(O)c3)[nH]c2c1` showed a melting point of 189 to 190 °C.

For the compound `Cc1cc(Cl)c(-n2nc(C)n(C(F)F)c2=O)cc1O`, the melting point is 154 to 156 °C.

`NC(=O)c1c(Cl)c(-c2ccccc2)n2c1CN(S(=O)(=O)c1ccncc1)CC2` gave a melting point of 202 to 204 °C.

Take `N#CN=C1NCCN1Cc1ccccc1`: the melting point lay within 120 to 122 °C.

Compound `O=C1NCN(c2ccccc2)C12CCN(CCCNc1ccc(F)cc1)CC2` registered a melting point of 158 to 162 °C.

The compound `CCc1nc(-c2cccc(C(=O)OC)c2)c(-c2ccnc(N)c2)s1` had a melting point of 173 to 174 °C.

`Cc1noc(NS(=O)(=O)c2ccccc2-c2ccc(-c3ncco3)cc2C(O)c2ncc(-c3ccccc3)o2)c1C` (centres undefined): the melting point is 125 to 135 °C.

In turn, `CCc1nccc2[nH]c(=O)ccc12` returned a melting point of 186 to 188 °C.

`CCCc1c(OCCCOc2cccc3c2CCCC3)ccc2c1OC(CCCC=O)(CCCC=O)CC2=O` displayed a melting point of 72 to 73 °C.

Consider `NC(=O)c1ccc(NCc2ccc(F)cc2)cn1`, for which the melting point fell in the range of 166 to 169 °C.

Compound `CP(C)(=O)CNc1cc(Oc2ncc(Cl)cc2Cl)ccc1[N+](=O)[O-]` came in with a melting point of 153 to 155 °C.

With `c1ccc(Oc2ccc3[nH]c4c(c3c2)CNCC4)cc1`, the melting point is 179 °C.

For `COc1cccc(C(C#N)=NOS(C)(=O)=O)c1`, the melting point is 105 to 107 °C.

Regarding `Cn1nc(N)c2sc3cc(O)c(O)cc3c21`, the melting point was 305 to 307 °C.

On to `CCCCOc1ccc(S(C)(=O)=O)cc1C(N)=O`, for which the melting point fell in the range of 146 to 150 °C.

In turn, `CCCCc1ncc(C/C=C/C(N)(Cc2cccs2)C(=O)O)n1Cc1ccc(C(=O)O)cc1` (centres undefined) had a melting point of 223 to 224 °C.

In the case of `CCOC(=O)C1CC(=O)C(NC(C)=O)=C(O)C1` (centres undefined), the melting point is 112 to 114 °C.

`Fc1ccc(OCCCCCCN2CCN(c3nccs3)CC2)cc1` gave a melting point of 58 to 60 °C.

In the case of `COc1cc2ncc(C#N)c(Nc3ccc(F)c(Cl)c3)c2cc1NC(=O)C=CCN1CCC(O)CC1`, the melting point was greater than 215 °C.

As for `COc1ccsc1CN=C(NC#N)Oc1ccccc1`, the melting point fell in the range of 170 to 171 °C.

`CCON=C(CC)C1=C(O)CC(c2ccc(Sc3ccc(S(C)(=O)=O)cn3)cc2)CC1=O` (centres undefined) showed a melting point of 126 to 128 °C.

Consider `CN1C(O)=C(C(=O)Nc2ccc(Br)cc2)c2ccsc2S1(=O)=O`, for which the melting point lay in the range of 197 to 199 °C.

In the case of `COc1ccc(-c2ccc(N)cc2)cc1OC1CCCC1`, the melting point fell in the range of 94 to 95 °C.

For the compound `COc1ccc(C(=O)[C@H]2CC=CC[C@H]2C(=O)O)cc1OC1CCCC1` (relative stereo), the melting point was in the range of 114 to 115 °C.

As to `CC(=O)C1CCC2C3CCC4CC(C)(O)CCC4(C)C3C(=O)CC12C` (centres undefined), the melting point is 175 °C.

In the case of `CC(=O)n1nc(C(=O)NC2CN(C)CCN(Cc3ccccc3)C2)c2ccccc21` (centres undefined), the melting point is 166 to 168 °C.

Compound `c1ccc2c(c1)-c1ccccc1C21c2cccnc2-c2ncccc21` gave a melting point of 208 to 210 °C.

Regarding `COc1cc(Nc2c(C#N)cnc3cc(-c4ccc(C5OCCO5)o4)ccc23)c(Cl)cc1Cl`, the melting point fell in the range of 224 to 229 °C.

The compound `CN1CC2CN(C(=O)N3c4ccccc4C(=O)Nc4cccnc43)CC2C1` (centres undefined) showed a melting point of 157 to 159 °C.

As to `c1ccc2c(c1)cnc1nnnn12`, the melting point was 150 °C.

`Cc1cc2c(c3c1NC(=O)CC3)O[C@@H](CN)[C@@H]2CO` (racemic) gave a melting point greater than 300 °C.

On to `COc1cc(OC)c(N=C=O)c(OC)c1`, for which the melting point lay within 67 to 70 °C.

The compound `O=C(CCCN1CC=C(c2ccccc2)CC1)c1cccnc1` displayed a melting point of 64 to 66 °C.

Consider `O=c1c(O)c(-c2ccccc2-c2ccc(CNc3nc(C(F)(F)F)nc4c3CCCC4)cc2)c1=O`, for which the melting point was determined as 193 °C.

Regarding `CC(C)C(C(=O)O)N(C)S(=O)(=O)c1ccc(-c2ccc(NC(=O)c3cc4ccccc4o3)cc2)cc1` (centres undefined), the melting point fell in the range of 237 to 239 °C.

As to `COC(=O)COc1cc(Cl)c(C(=O)CBr)cc1Cl`, the melting point fell in the range of 89 to 90 °C.

As for `CC(=O)Nc1c(C(=O)c2cccnc2)[nH]c2cc(Cl)ccc12`, the melting point is 213 to 214 °C.

`CCCCc1nc(C(O)(C(C)C)C(C)C)c(C(N)=O)n1Cc1ccc(-c2ccccc2C(=O)O)cc1` showed a melting point of 178 to 181 °C.

Compound `N#CNc1ccccc1I` returned a melting point of 117 to 118 °C.

`CN(C)c1ccc2cc(-c3ccnc(Cl)c3C#N)ccc2c1` came in with a melting point of 198 to 200 °C.

`COC(=O)c1ccc(/C=C/C(=O)NOC2CCCCO2)cc1` (centres undefined): the melting point was 133 °C.

For `OC(CNCC1CCCO1)c1ccccc1` (centres undefined), the melting point fell in the range of 70 to 72 °C.

Take `CNC(=O)N1CC(Oc2ccc(C(F)(F)F)cc2)C1`: the melting point lay within 154 to 157 °C.

The compound `O=c1[nH]c(=O)n(Cc2ccc(OCc3noc(-c4ccccc4)n3)cc2)o1` gave a melting point of 150 to 151 °C.

Broadly, the melting point is the temperature, or range, at which the solid turns liquid.
